Consider 17 molecules from patent US20200131669A1, “CYCLIC PEPTIDE COMPOUND HAVING HIGH MEMBRANE PERMEABILITY, AND LIBRARY CONTAINING SAME” (Chugai Seiyaku Kabushiki Kaisha, priority 2017, published 2020).

SMILES strings stand for the structures. Positions of bridges follow the written chain, without caps; N, C: chain ends. Non-standard residues stand in square brackets, D forms with d. Residues, ends and D or L forms follow the SMILES beside them. ξ: configuration not given here. *: point of attachment. NMeAbu(4-morpholino) = CN[C@@H](CCN1CCOCC1)C(=O)O; Phe(4-CF3) = N[C@@H](Cc1ccc(C(F)(F)F)cc1)C(=O)O; 3Pal(6-NMe2) = CN(C)c1ccc(C[C@H](N)C(=O)O)cn1; Phe(4-CHF2) = N[C@@H](Cc1ccc(C(F)F)cc1)C(=O)O; NMePhe(3-Cl) = CN[C@@H](Cc1cccc(Cl)c1)C(=O)O; Tyr(3-F) = N[C@@H](Cc1ccc(O)c(F)c1)C(=O)O; hNle(7,7-F2) = N[C@@H](CCCCC(F)F)C(=O)O; Gly(N-(CH2)2OEt) = CCOCCNCC(=O)O; NMeF = CN[C@@H](Cc1ccccc1)C(=O)O; NMeI = CC[C@H](C)[C@H](NC)C(=O)O; dNMeF = CN[C@H](Cc1ccccc1)C(=O)O; 3Pal = N[C@@H](Cc1cccnc1)C(=O)O; NMeD = CN[C@@H](CC(=O)O)C(=O)O; NMeL = CN[C@@H](CC(C)C)C(=O)O; Propyl(2R-OH) = C[C@@H](O)C*; NMeV = CN[C@H](C(=O)O)C(C)C; NMeAbu = CC[C@H](NC)C(=O)O; NPentylGly = CCCCCNCC(=O)O; Pip = O=C(O)[C@@H]1CCCCN1; NMeA = CN[C@@H](C)C(=O)O; Piperidide = C1CCN(*)CC1; Abu = CC[C@H](N)C(=O)O; CH2CMe2OH = CC(C)(O)C*; Me2NCH2CH2 = CN(C)CC*; NBuGly = CCCCNCC(=O)O; Isopentyl = CC(C)CC*; NPrGly = CCCNCC(=O)O; ξS = NC(CO)C(=O)O; Sar = CNCC(=O)O; tBu = CC(C)(C)*; Propyl = CCC*

The nature of the first data set: Caco-2 membrane permeability, improved method as used in the following Examples (96-well, 20 to 24 h preincubation). It is filed as in vitro ADME. The following applies: human, Caco-2, Caco-2. The gist of the method: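 Papp (cm/sec) was derived from LC/MS of basal samples collected 180 min after apical dosing in FaSSIF/HBSS pH 6.0 with 1% DMSO, against a basal HBSS pH 7.4 receiver containing 4% BSA. Three-week Caco-2 cultures were first preincubated with compound in DMEM+FaSSIF at 37 °C for 20–24 h.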
`CCCCN1CC(=O)N(C)[C@H](Cc2ccccc2)C(=O)N(C)[C@@H](CC(C)C)C(=O)N[C@@H](COC(C)(C)C)C(=O)N(C)[C@@H](CC(C)C)C(=O)N[C@H](C(=O)N2CCCCC2)CC(=O)N(C)CC(=O)N(C)[C@@H](Cc2ccccc2)C(=O)N[C@@H](C(C)C)C(=O)N(C)[C@@H](CC(C)C)C(=O)N[C@@H](COC[C@@H](C)O)C1=O` [pd496] ([Sar][NMeF]V[NMeL]S(Propyl(2R-OH))[NBuGly][dNMeF][NMeL]S(tBu)[NMeL]D-Piperidide; lactam N-11): the Papp A→B at 180 min amounted to 1 ×10⁻⁶ cm/s.

With `CCCN1CC(=O)N(C)[C@@H](C(C)C)C(=O)N[C@H](C(=O)N2CCCCC2)CC(=O)N(C)[C@@H](C)C(=O)N[C@@H](CC(C)C)C(=O)N(C)[C@@H](CC(C)C)C(=O)N(C)[C@@H](Cc2ccccc2)C(=O)NC(COCCN(C)C)C(=O)N(C)[C@@H](Cc2ccccc2)C(=O)N(C)[C@@H](CC(C)C)C(=O)N[C@@H]([C@@H](C)O)C1=O` (stereo partly drawn) [pd57] ([NMeA]L[NMeL][NMeF][ξS](Me2NCH2CH2)[NMeF][NMeL]T[NPrGly][NMeV]D-Piperidide; lactam N-11), the Papp A→B at 180 min was found to be 0.12 ×10⁻⁶ cm/s. The molecule `CCCN1CC(=O)N(C)[C@@H](CC(C)C)C(=O)N[C@@H](COCCC(C)C)C(=O)N(C)[C@@H](Cc2ccccc2)C(=O)N(C)[C@@H](C(C)C)C(=O)N[C@H](C(=O)N2CCCCC2)CC(=O)N[C@H](C(C)C)C(=O)N(C)[C@@H](Cc2ccccc2)C(=O)N[C@@H](COCC(C)(C)O)C(=O)N(C)[C@@H](CC(C)C)C(=O)N[C@@H]([C@@H](C)O)C1=O` [pd426] ([dV][NMeF]S(CH2CMe2OH)[NMeL]T[NPrGly][NMeL]S(Isopentyl)[NMeF][NMeV]D-Piperidide; lactam N-11) had a Papp A→B at 180 min of 1.4 ×10⁻⁶ cm/s. `CCCCN1CC(=O)N(C)[C@@H](CC(C)C)C(=O)N[C@@H](COC(C)(C)C)C(=O)N(C)[C@@H](Cc2ccccc2)C(=O)N(C)[C@@H](C(C)C)C(=O)N[C@H](C(=O)N2CCCCC2)CC(=O)N[C@H](CC(C)C)C(=O)N(C)[C@@H](Cc2ccccc2)C(=O)N[C@@H](CC(C)C)C(=O)N(C)[C@@H](CCN2CCOCC2)C(=O)N[C@@H]([C@@H](C)O)C1=O` [pd452] ([dL][NMeF]L[NMeAbu(4-morpholino)]T[NBuGly][NMeL]S(tBu)[NMeF][NMeV]D-Piperidide; lactam N-11) came in with a Papp A→B at 180 min of 1.3 ×10⁻⁶ cm/s. Regarding `CCCOC[C@@H]1NC(=O)[C@H](Cc2ccccc2)N(C)C(=O)[C@@H](C(C)C)NC(=O)C[C@@H](C(=O)N2CCCCC2)NC(=O)[C@H](CC(C)C)N(C)C(=O)[C@H](Cc2ccccc2)N(C)C(=O)[C@H](COC(C)(C)C)NC(=O)[C@H](CC(C)C)N(C)C(=O)CN(C)C(=O)[C@H]([C@@H](C)O)NC(=O)[C@H](CC(C)C)N(C)C1=O` [pd327] ([dV][NMeF]S(Propyl)[NMeL]T[Sar][NMeL]S(tBu)[NMeF][NMeL]D-Piperidide; lactam N-11), the Papp A→B at 180 min is 3.1 ×10⁻⁶ cm/s. `CC(=O)NCCCC[C@@H]1NC(=O)[C@H](CC(C)C)N(C)C(=O)[C@H](CC(C)C)NC(=O)[C@H](Cc2ccccc2)N(C)C(=O)[C@@H](CC(C)C)NC(=O)C[C@@H](C(=O)N2CCCCC2)NC(=O)[C@H](C(C)C)N(C)C(=O)[C@H](Cc2ccccc2)N(C)C(=O)[C@H](COC(C)(C)C)NC(=O)[C@H](CC(C)C)N(C)C(=O)CN(C)C1=O` [pd471] ([dL][NMeF]L[NMeL]K(Ac)[Sar][NMeL]S(tBu)[NMeF][NMeV]D-Piperidide; lactam N-11) returned a Papp A→B at 180 min of 2.1 ×10⁻⁶ cm/s.

For `CC[C@H](C)[C@H]1C(=O)N[C@@H]([C@@H](C)O)C(=O)N(C)CC(=O)N(C)[C@@H](CC(C)C)C(=O)N[C@H](C(=O)N2CCCCC2)CC(=O)N(C)[C@@H](C)C(=O)N[C@@H](CC(C)C)C(=O)N(C)[C@@H](CC(C)C)C(=O)N(C)[C@@H](Cc2ccccc2)C(=O)N[C@@H](CCCCC(F)F)C(=O)N(C)[C@@H](Cc2ccccc2)C(=O)N1C` [pd335] ([NMeA]L[NMeL][NMeF][hNle(7,7-F2)][NMeF][NMeI]T[Sar][NMeL]D-Piperidide; lactam N-11), the Papp A→B at 180 min came to 2 ×10⁻⁶ cm/s. On to `CCCCCN1CC(=O)N(C)[C@@H](Cc2ccccc2)C(=O)N[C@@H](CC(C)C)C(=O)N(C)[C@@H](CC)C(=O)N[C@@H]([C@@H](C)O)C(=O)N(C)CC(=O)N(C)[C@@H](Cc2ccccc2)C(=O)N(C)[C@@H](CC)C(=O)N[C@@H](COC(C)(C)C)C(=O)N(C)[C@@H](CC(C)C)C(=O)N[C@H](C(=O)N2CCCCC2)CC1=O` [pd405] ([NPentylGly][NMeF]L[NMeAbu]T[Sar][NMeF][NMeAbu]S(tBu)[NMeL]D-Piperidide; lactam N-11), for which the Papp A→B at 180 min amounted to 2.2 ×10⁻⁶ cm/s.

`CCOCCN1CC(=O)N(C)[C@@H](CC(C)C)C(=O)N[C@@H](COC(C)(C)C)C(=O)N(C)[C@@H](Cc2ccccc2)C(=O)N(C)[C@@H](CC)C(=O)N[C@H](C(=O)N2CCCCC2)CC(=O)N[C@H](CC(C)C)C(=O)N(C)[C@@H](Cc2ccccc2)C(=O)N[C@@H](CC(C)C)C(=O)N(C)[C@@H](CC)C(=O)N[C@@H]([C@@H](C)O)C1=O` [pd416] ([dL][NMeF]L[NMeAbu]T[Gly(N-(CH2)2OEt)][NMeL]S(tBu)[NMeF][NMeAbu]D-Piperidide; lactam N-11) registered a Papp A→B at 180 min of 3.1 ×10⁻⁶ cm/s.

The same data set, now with this note: human, Caco-2, Caco-2 (cm/sec).
As for `CC(C)C[C@H]1C(=O)N(C)[C@@H](Cc2ccccc2)C(=O)N(C)[C@@H](CC(C)C)C(=O)N[C@H](C(=O)N(C)[C@@H](Cc2ccccc2)C(=O)N[C@@H](Cc2ccccc2)C(=O)N2CCCCC2)CC(=O)N[C@@H](C(C)C)C(=O)N[C@@H](C)C(=O)N[C@@H]([C@@H](C)O)C(=O)N(C)[C@@H](C)C(=O)N[C@@H](Cc2ccccc2)C(=O)N1C` [pd241] (VAT[NMeA]F[NMeL][NMeF][NMeL]D[NMeF]F-Piperidide; lactam N-9), the Papp A→B at 180 min amounted to 0.058 ×10⁻⁶ cm/s. `CC(C)C[C@@H]1NC(=O)[C@H](Cc2ccccc2)N(C)C(=O)[C@H](COC(C)(C)C)NC(=O)[C@H](Cc2ccccc2)N(C)C(=O)[C@H](Cc2ccccc2)N(C)C(=O)[C@H](CC(C)C)N(C)C(=O)[C@@H](CC(C)C)NC(=O)C[C@@H](C(=O)N2CCCCC2)NC(=O)[C@H](Cc2ccccc2)N(C)C(=O)[C@H]([C@@H](C)O)NC(=O)[C@H](CC(C)C)N(C)C1=O` [pd243] ([dL][NMeL][NMeF][NMeF]S(tBu)[NMeF]L[NMeL]T[NMeF]D-Piperidide; lactam N-11) displayed a Papp A→B at 180 min of 0.057 ×10⁻⁶ cm/s. As to `CC(C)C[C@@H]1NC(=O)[C@H](CC(C)C)N(C)C(=O)[C@@H](C)NC(=O)C[C@@H](C(=O)N2CCCCC2)N(C)C(=O)[C@H](CC(C)C)N(C)C(=O)[C@H]([C@@H](C)O)NC(=O)[C@H](CC(C)C)N(C)C(=O)[C@H](Cc2ccc(C(F)(F)F)cc2)NC1=O` [pd149] ([dA][NMeL]L[Phe(4-CF3)][NMeL]T[NMeL][NMeD]-Piperidide; lactam N-8), the Papp A→B at 180 min was determined as 1.7 ×10⁻⁶ cm/s. The molecule `CC[C@@H]1NC(=O)[C@H](C(C)C)N(C)C(=O)[C@@H](C(C)C)NC(=O)C[C@@H](C(=O)N2CCCCC2)NC(=O)[C@H](CC(C)C)N(C)C(=O)[C@H](Cc2cccc(Cl)c2)N(C)C(=O)[C@H](COC(C)(C)C)NC(=O)[C@H](CC(C)C)N(C)C(=O)CN(C)C(=O)[C@H](Cc2cccnc2)NC(=O)[C@H](CC(C)C)N(C)C1=O` [pd164] ([dV][NMeV][Abu][NMeL][3Pal][Sar][NMeL]S(tBu)[NMePhe(3-Cl)][NMeL]D-Piperidide; lactam N-11) displayed a Papp A→B at 180 min of 1.6 ×10⁻⁶ cm/s. In turn, `CC(C)C[C@H]1C(=O)N[C@H](C(=O)N2CCCCC2)CC(=O)N(C)[C@@H](C)C(=O)N[C@@H](Cc2ccc(O)c(F)c2)C(=O)N(C)[C@@H](CC(C)C)C(=O)N(C)[C@@H](CC(C)C)C(=O)N[C@@H](C(C)C)C(=O)N(C)[C@@H](Cc2ccccc2)C(=O)N(C)[C@@H](CC(C)C)C(=O)N[C@@H]([C@@H](C)O)C(=O)N(C)CC(=O)N1C` [pd122] ([NMeA][Tyr(3-F)][NMeL][NMeL]V[NMeF][NMeL]T[Sar][NMeL]D-Piperidide; lactam N-11) displayed a Papp A→B at 180 min of 0.46 ×10⁻⁶ cm/s. Consider `CC(C)C[C@H]1C(=O)N[C@H](C(=O)N2CCCCC2)CC(=O)N[C@H](C)C(=O)N(C)[C@@H](CC(C)C)C(=O)N2CCCC[C@H]2C(=O)N(C)[C@@H](CC(C)C)C(=O)N2CCCC[C@H]2C(=O)N(C)[C@@H](C)C(=O)N[C@@H]([C@@H](C)O)C(=O)N(C)[C@@H](Cc2ccccc2)C(=O)N[C@@H](Cc2ccc(C(F)(F)F)cc2)C(=O)N1C` [pd141] ([dA][NMeL][Pip][NMeL][Pip][NMeA]T[NMeF][Phe(4-CF3)][NMeL]D-Piperidide; lactam N-11), for which the Papp A→B at 180 min stood at 2.1 ×10⁻⁶ cm/s.

The data set is the same for the next values; noted with them: human; Papp, Caco-2 membrane permeability, improved method; read-out: Caco-2.
Consider `CCCCN1CC(=O)N(C)[C@@H](CC(C)C)C(=O)N[C@H](C(=O)N2CCCCC2)CC(=O)N(C)[C@@H](C)C(=O)N[C@@H](Cc2ccc(N(C)C)nc2)C(=O)N(C)[C@@H](CC(C)C)C(=O)N(C)[C@@H](Cc2ccccc2)C(=O)N[C@@H](CC(C)C)C(=O)N(C)[C@@H](C)C(=O)N(C)[C@@H](CC(C)C)C(=O)N[C@@H]([C@@H](C)O)C1=O` [pd398] ([NMeA][3Pal(6-NMe2)][NMeL][NMeF]L[NMeA][NMeL]T[NBuGly][NMeL]D-Piperidide; lactam N-11), for which the Papp A→B at 180 min turned out to be 2.7 ×10⁻⁶ cm/s. On to `CC[C@H](C)[C@H]1C(=O)N[C@@H]([C@@H](C)O)C(=O)N(C)CC(=O)N(C)[C@@H](CC)C(=O)N[C@H](C(=O)N2CCCCC2)CC(=O)N(C)[C@@H](C)C(=O)N[C@@H](Cc2ccc(C(F)F)cc2)C(=O)N(C)[C@@H](CC(C)C)C(=O)N(C)[C@@H](Cc2ccccc2)C(=O)N[C@@H](CC(C)C)C(=O)N(C)[C@@H](CC(C)C)C(=O)N1C` [pd473] ([NMeA][Phe(4-CHF2)][NMeL][NMeF]L[NMeL][NMeI]T[Sar][NMeAbu]D-Piperidide; lactam N-11), for which the Papp A→B at 180 min worked out at 4.5 ×10⁻⁶ cm/s.
